Data from patent US20120328602A1, “COMPOSITIONS AND METHODS FOR TREATING CONDITIONS ASSOCIATED WITH CERAMIDE BIOSYNTHESIS” (priority 2007, published 2012).
“Also recorded” adds a separate entry of the source.

Legend:
[1] = test system: peroxynitrite; experiment: 3-nitrotyrosine (NT) staining in dorsal horn as marker of peroxynitrite; format: in vivo, mice
Text: . Detection of NT in this setting can therefore be reliably used as marker of peroxynitrite. […]; FIG. 8c), evidence of the contribution of ceramide in the production of spinal peroxynitrite.

[2] = test system: manganese superoxide dismutase (MnSOD); experiment: measurement of MnSOD enzymatic activity, spectrophotometric; format: in vivo, mice; details: FB1 0.25-1 mg/kg/d with morphine, n=5
Protocol: Dorsal halves of the spinal cord lumbar region enlargement (L4-L6) were homogenized with 10 mM phosphate buffered saline (pH 7.4) in a Polytron homogenizer and then sonicated on ice for one minute (twenty seconds, three times). The sonicated samples were subsequently centrifuged at 1,100×g for ten minutes. SOD activity was measured in the supernatants as described previously (Wang et al., 2004). A competitive inhibition assay was performed which used xanthine-xanthine oxidase-generated superoxide to reduce nitroblue tetrazolium (NBT) to blue tetrazolium salt. The reaction was performed in sodium carbonate buffer (50 mM, pH 10.1) containing EDTA (0.1 mM), nitroblue tetrazolium (25 μM), xanthine and xanthine-oxidase (0.1 mM and 2 nM respectively; Boehringer, Germany). The rate of NBT reduction was monitored spectrophotometrically (Perkin Elmer Lambda 5 Spectrophotometer, Milan, Italy) at 560 nm. The amount of protein required to inhibit the rate of NTB reduction by 50% was defined as one unit of enzyme activity. Cu/Zn-SOD activity was inhibited by performing the assay in the presence of 2 mM NaCN after pre-incubation for thirty minutes. Enzymatic activity was expressed in units per milligram of protein (Wang et al., 2004).

[3] = test system: Iba1; experiment: spinal expression of Iba1 (microglia activation); format: in vivo, mice; details: for Iba1 immunoreactivity in superficial layers of the dorsal horn: micrographs
[4] = test system: mice; experiment: Rotarod motor function test; format: in vivo; details: myriocin 0.4 mg/kg, FB1 1 mg/kg, D609 40 mg/kg; fifteen, thirty, and sixty minutes after administration; n=4; vs vehicle
Protocol: Mice were trained before experimentation for their ability to remain for one-hundred twenty seconds on a revolving Rotarod apparatus (accelerating units increase from 3.5 to 35 rpm in five minutes). Mice (n=4 per group) were injected with an i.p. injection of the highest dose of FB1 (1 mg/kg), myriocin (0.4 mg/kg), D609 (40 mg/kg) used to block antinociceptive tolerance or its vehicle. Mice (n=4 per group) were tested and examined for motor […] on the Rotarod at fifteen, thirty, and sixty minutes after drug administration as described in the method section. The latency time to fall off the Rotarod was determined. A cut-off time of one-hundred twenty seconds was used.

[5] = test system: serine palmitoyl transferase (SPT); experiment: serine palmitoyl transferase (SPT) activity; format: in vivo, mice; details: repeated morphine, tolerant mice vs vehicle
Protocol: SPT activity was determined by measuring the incorporation of [^3H] serine into 3-ketosphinganine following the method previously described (Williams et al., 1984). The results were normalized by the samples' protein concentration.

[6] = test system: TNF-α; experiment: TNF-α in dorsal horn of lumbar spinal cord by ELISA; format: in vivo, mice; details: morphine group vs vehicle group, n=10
[7] = test system: IL-6; experiment: IL-6 in dorsal horn of lumbar spinal cord by ELISA; format: in vivo, mice; details: morphine group vs vehicle group, n=10
[8] = test system: IL-1β; experiment: IL-1β in dorsal horn of lumbar spinal cord by ELISA; format: in vivo, mice; details: morphine group vs vehicle group, n=10
[9] = test system: neutral SMase; experiment: sphingomyelinase activity in spinal cord tissues, neutral isoform (Amplex Red kit); format: in vivo, mice; details: repeated morphine vs vehicle (not shown)
Protocol: Sphingomyelinase activity was measure using Amplex® Red Sphingomyelinase Assay Kit (Molecular Probes, Eugene, Oreg.) following manufacturer's instructions. First, spinal cord tissues were homogenized in buffers for each specific assay as previously described (Dobrowsky and Kolesnick, 2001). For the acid isoforms, Na acetate (100 mM and pH 5.0) lysis buffer was used. 2 mM EDTA was added to the lysis buffer for detection of the insoluble isoform. For neutral isoform detection, the tissues were homogenized in Hepes (20 mM, pH 7.4) lysis buffer. The kinetics for sphingomyelinase activity was measured in a fluorescence microplate reader for two hours followed by normalization per protein concentration of the sample. Hydrogen peroxide and sphingomyelinase were used as positive controls.

Compound | appearance of NT staining ([1]; co-administration of morphine with FB1 1 mg/kg/d) | loss of MnSOD enzymatic activity [2] | Iba1 immunoreactivity in superficial layers of the dorsal horn ([3]; 1 mg/kg/d of FB1 with morphine) | spinal expression of IBa1 (activation of microglial cell) ([3]; morphine plus FB1 1 mg/kg/d, n=5) | Rotarod motor function deficits [4] | enzymatic activity of serine palmytoyl transferase (SPT) [5] | NT staining in dorsal horn ([1]; morphine tolerant mice) | TNF-α in dorsal horn tissues [6] | Iba1 immunoreactivity in superficial layers of the dorsal horn ([3]; acute morphine in tolerant mice vs vehicle) | spinal expression of IBa1 ([3]; morphine group, n=5, ±SEM) | IL-6 in dorsal horn tissues [7] | IL-1β in dorsal horn tissues [8] | activity of the neutral SMase [9]
CCCC[C@@H](C)[C@@H](OC(=O)C[C@@H](CC(=O)O)C(=O)O)[C@H](C[C@@H](C)C[C@H](O)CCCC[C@@H](O)C[C@H](O)[C@H](C)N)OC(=O)C[C@@H](CC(=O)O)C(=O)O [FB1, Fumonisin B1] | blocked | restored in a dose-dependent manner | blocked | 275.53±0.053 densitometry units | did not show signs of Rotarod deficits |  |  |  |  |  |  |  | 
CN1CC[C@]23c4c5ccc(O)c4O[C@H]2[C@@H](O)C=C[C@H]3[C@H]1C5 [morphine] |  |  |  |  |  | increased enzymatic activity | appearance of NT staining in tolerant mice | increased immunoreactivity; also recorded: significant increase | increased | 541.29±0.073 densitometry units | increased immunoreactivity; also recorded: significant increase | increased immunoreactivity; also recorded: significant increase | not changed compared to vehicle
